According to patent US20150309031A2, “COMPOSITIONS AND METHODS FOR PROGNOSIS AND TREATMENT OF CANCER” (NOVAZOI THERANOSTICS, priority 2013, published 2015):

Legend:
231 cells = assay: Centrosome amplification (CA) by microscopy, 231 cells; format: cell-based; conditions: for maximum extent of CA in mitotic cells: over 24 h
Experimental: Consequently, CA was assessed in cultures treated with different concentrations of declustering drugs for 6, 12, 18, or 24 h and untreated controls via microscopy. […] The peak percent CA detected over 24 h is shown in FIG. 6 (only statistically significant (P<0.05) increases over control values are represented in the Figures). Representative confocal micrographs of CA in interphase and mitotic cells, both control and drug treated, are depicted in FIG. 7. […] To better understand the “potency” of drug-induced CA with time, the average fold change in CA over controls over 24 h was assessed (FIG. 5A), whereby the extent of CA across time points (i.e., 6, 12, 18, and 24 h) was averaged and then divided by the extent of CA in control (i.e., 0 h). […] For Nos and BN, there was no major difference in CA levels in interphase versus mitotic cells.

[1] = system: MDA-MB-231 (231), PC3, and HeLa cells; assay: Mitotic arrest (MA) by flow cytometry (MPM2/PI), across cell lines; format: cell-based; conditions: coarse-grained categories
Experimental: (§1) Trypsinized cells were resuspended in PBS at 10^6 cells/ml. Cells were then fixed by addition of ice-cold 70% ethanol. Ethanol-fixed cells were kept overnight at 4° C. before staining. Cells were pelleted and washed twice with PBS. Cell pellets were incubated for an hour at room temperature with mouse anti-MPM-2 antibody (Millipore, Mass., USA), followed by 1 h incubation with Alexa-488 anti-mouse secondary antibody (Life Technologies, NY, USA). Finally cells were washed, pelleted and resuspended in propidium iodide-containing isotonic buffer (0.1 mg/mL) and 0.5% Triton X-100. Cell cycle distribution was determined by flow cytometry using an LSR Fortessa Flow cytometer (BD Biosciences, CA, USA) and analyzed using Flowjo software (Tree Star, OR, USA).
To evaluate the impact of putative declustering drugs on cell cycle progression and hypodiploidy (<2N DNA content, which may indicate apoptotic cells), MDA-MB-231 (231), PC3, and HeLa cells were treated with different concentrations of declustering drugs, stained with propidium iodide, labeled with anti-MPM2 antibody, and then assessed by flow cytometry at multiple time points over 48 h. […] The duration, highest degree, and rapidity of onset of MA varied between drugs, drug concentrations, and cell lines (FIGS. 2A, 2B). In general, the maximum MA achieved was less pronounced in Nos- and PJ-treated cells (FIGS. 2A, 2B). […]

MDA-MB-231 (231) cells = assay: subG1 (hypodiploid) fraction by flow cytometry, 231 cells; format: cell-based
Experimental: as §1, with “OR, USA). […] The duration, highest degree, and rapidity of onset of MA varied between drugs, drug concentrations, and cell lines (FIGS. 2A, 2B). In general, the maximum MA achieved was less pronounced in Nos- and PJ-treated cells (FIGS. 2A, 2B). Drug-induced onset of MA was corroborated by substantial increases in cyclin B1 levels in all cell lines (FIG. 2C). […] Instances where the subG1 fraction was elevated without cleaved caspase-3 may either represent caspase-independent cell death or the presence of hypodiploid cells whose fate is unclear.” for “OR, USA).”

[2] = system: human ovarian cancer xenografts; conditions: nude mice carrying human ovarian cancer xenografts; cited from earlier work

reduced bromonoscapine [RBN]
change of peak CA extent over control (231 cells; 25 μM): only slightly more than doubled the peak CA extent
final extent of CA (231 cells; 25 μM): around 90%
maximum extent of CA in interphase cells (231 cells; 10 μM): 31%
maximum extent of CA in interphase cells (231 cells; 25 μM): 87%
fold increase of CA over controls, mitotic cells (231 cells; 10 μM): ~2.5 fold
maximum extent of CA in mitotic cells (231 cells; 10 μM): 56%
fold increase of CA over controls, mitotic cells (231 cells; 25 μM): ~2.0 fold
maximum extent of CA in mitotic cells (231 cells; 25 μM): 96%
peak MA (MA:HR), cells in MA [1]: ≥ 30%
Peak subG1 percent over 48 h (MDA-MB-231 (231) cells; 10 μM): 47.0%
Peak subG1 percent over 48 h (MDA-MB-231 (231) cells; 25 μM): 80.8%
maximum subG1 fraction relative to control (MDA-MB-231 (231) cells; 25 μM): 25 × control
toxicity in normal tissues [2]: toxicity was not detected in normal tissues
tumor progression [2]: inhibited tumor progression
